# From patent US20100267561A1, “HERBICIDAL PYRIDAZINONE DERIVATIVES” (priority 2007, published 2010)
# Legend:
# Type in all cases: in vivo
# [1] = test system: Virginia (V.) dayflower (Commelina virginica); test: Test E pre-/postemergence plant response; conditions: scale 0 to 100
# Outline: (§1)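 Ratings of 0 (no effect) through 100 (complete control) came from visual evaluation against untreated plants after a 14- to 21-day greenhouse period. Compound in a non-phytotoxic solvent/surfactant mixture was applied preemergence to seeds and postemergence to plants at the 1- to 4-leaf stage.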
# [2] = test system: common sowthistle (Sonchus oleraceous); test: Test E pre-/postemergence plant response; conditions: scale 0 to 100
# Outline: as §1
# [3] = test system: common chickweed (Stellaria media); test: Test E pre-/postemergence plant response; conditions: Postemergence, scale 0 to 100
# Outline: as §1
# [4] = test system: Russian thistle (Salsola kali); test: Test E pre-/postemergence plant response; conditions: Preemergence, 4 g ai/ha; scale 0 to 100
# Outline: as §1
# kochia (Kochia scoparia) = test: Test E pre-/postemergence plant response; conditions: scale 0 to 100
# Outline: as §1
# [5] = test system: prickly sida (Sida spinosa); test: Test E pre-/postemergence plant response; conditions: scale 0 to 100
# Outline: as §1
# [6] = test system: bearded (Brdd.) sprangletop (Leptochloa fascicularis); test: Test D flooded paddy plant response; conditions: Flood, scale 0 to 100 (0 no effect, 100 complete control), 21 days
# Description: (§2) Three plastic pots (ca. 16-cm diameter) for each application rate were partially filled with sterilized Tama silt loam soil comprising a 35:50:15 ratio of sand, silt and clay and 2.6% organic matter. Separate plantings for each of the three pots were as follows. Seeds from the U.S. of ducksalad (Heteranthera limosa), umbrella sedge (Cyperus difformis) and purple redstem (Ammannia coccinea), were planted into one 16-cm pot for each rate. Seeds from the U.S. of rice flatsedge (Cyperus iria), bearded (Brdd.) sprangletop (Leptochloa fascicularis), one stand of 9 or 10 water-seeded rice seedlings (Oryza sativa cv. ‘Japonica—M202’), and one stand of 6 transplanted rice seedlings (Oryza sativa cv. ‘Japonica—M202’) were planted into one 16-cm pot for each rate. Seeds from the U.S. of barnyardgrass (Echinochloa crus-galli), late watergrass (Echinochloa oryzicola), early watergrass (Echinochloa oryzoides) and junglerice (Echinochloa colona) were planted into one 16-cm pot for each rate. Plantings were sequential so that crop and weed species were at the 2.0 to 2.5-leaf stage at time of treatment.
# (§3) Potted plants were grown in a greenhouse with day/night temperature settings of 30/27° C., and supplemental balanced lighting was provided to maintain a 16-hour photoperiod. Test pots were maintained in the greenhouse until test completion.
# (§4) At time of treatment, test pots were flooded to 3 cm above the soil surface, treated by application of test compounds directly to the paddy water, and then maintained at that water depth for the duration of the test. Effects of treatments on rice and weeds were visually evaluated by comparison to untreated controls after 21 days. Plant response ratings, summarized in Table D, are based on a scale of 0 to 100 where 0 is no effect and 100 is complete control. A dash (-) response means no test result.
# [7] = test system: rice flatsedge (Cyperus iria); test: Test D flooded paddy plant response; conditions: Flood, scale 0 to 100 (0 no effect, 100 complete control), 21 days
# Description: as §2, §3, §4
# [8] = test system: transplanted rice seedlings (Oryza sativa cv. ‘Japonica—M202’); test: Test D flooded paddy plant response; conditions: Flood, scale 0 to 100 (0 no effect, 100 complete control), 21 days
# Description: as §2, §3, §4
# [9] = test system: blackgrass (Alopecurus myosuroides); test: Test A pre-/postemergence plant response
# Outline: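 Seeds sown in loam–sand blend; test chemicals in non-phytotoxic solvent with surfactant applied preemergence as directed soil spray and, concurrently, postemergence to plants 2–10 cm tall at one- to two-leaf stage. Greenhouse ~10 days, then visual injury rating vs untreated controls on 0–100 scale (0 = no effect, 100 = complete control).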
# [10] = Postemergence, 31 g ai/ha, 0 to 100 scale, 0 no effect, 100 complete control
# [11] = Postemergence, 125 g ai/ha, 0 to 100 scale, 0 no effect, 100 complete control
# [12] = Preemergence, 31 g ai/ha, 0 to 100 scale, 0 is no effect, 100 is complete control
# [13] = Preemergence, 125 g ai/ha, 0 to 100 scale (0 no effect, 100 complete control)
structure (smiles),measurement,setting,value
CCc1cc(-c2ccc(C(F)(F)F)cc2)nn1-c1c(OC(=O)OC(C)C)cnn(C)c1=O [Compound 12],"Plant response rating, Dayflower, V.","[1]; 4 g ai/ha, Postemergence",0
same,"Plant response rating, Dayflower, V.","[1]; 8 g ai/ha, Preemergence",0
same,"Plant response rating, Dayflower, V.","[1]; 31 g ai/ha, Preemergence",0
same,"Plant response rating, Dayflower, V.","[1]; Postemergence, 8 g ai/ha",0
same,"Plant response rating, Dayflower, V.","[1]; Postemergence, 31 g ai/ha",0
same,"Plant response rating, Dayflower, V.","[1]; Preemergence, 4 g ai/ha",0
same,"Plant response rating, Sowthistle","[2]; 4 g ai/ha, Postemergence",0
same,"Plant response rating, Sowthistle","[2]; Postemergence, 8 g ai/ha",0
same,"Plant response rating, Sowthistle","[2]; Postemergence, 31 g ai/ha",0
same,"Plant response rating, Sowthistle","[2]; Preemergence, 4 g ai/ha",0
same,"Plant response rating, Chickweed",[3]; 4 g ai/ha,0
same,"Plant response rating, Chickweed",[3]; 8 g ai/ha,0
same,"Plant response rating, Chickweed",[3]; 31 g ai/ha,0
same,"Plant response rating, Thistle, Russian",[4],0
same,"Plant response rating, Kochia","kochia (Kochia scoparia); 4 g ai/ha, Postemergence",0
same,"Plant response rating, Kochia","kochia (Kochia scoparia); 31 g ai/ha, Preemergence",0
same,"Plant response rating, Kochia","kochia (Kochia scoparia); Postemergence, 8 g ai/ha",0
same,"Plant response rating, Kochia","kochia (Kochia scoparia); Postemergence, 31 g ai/ha",0
same,"Plant response rating, Kochia","kochia (Kochia scoparia); Preemergence, 4 g ai/ha",0
same,"Plant response rating, Prickly Sida","[5]; 4 g ai/ha, Postemergence",0
same,"Plant response rating, Prickly Sida","[5]; 31 g ai/ha, Preemergence",0
same,"Plant response rating, Prickly Sida","[5]; Postemergence, 8 g ai/ha",0
same,"Plant response rating, Prickly Sida","[5]; Postemergence, 31 g ai/ha",0
same,"Plant response rating, Prickly Sida","[5]; Preemergence, 4 g ai/ha",0
CCc1cc(-c2ccc(Cl)cc2)nn1-c1c(O)cnn(C)c1=O [Compound 21],"Plant response rating, Sprangletop, Brdd.",[6]; 16 g ai/ha,30
same,"Plant response rating, Sprangletop, Brdd.",[6]; 32 g ai/ha,30
same,"Plant response rating, Sprangletop, Brdd.",[6]; 64 g ai/ha,80
same,"Plant response rating, Sprangletop, Brdd.",[6]; 125 g ai/ha,100
same,"Plant response rating, Sprangletop, Brdd.",[6]; 250 g ai/ha,100
same,"Plant response rating, Flatsedge, Rice",[7]; 16 g ai/ha,0
same,"Plant response rating, Flatsedge, Rice",[7]; 32 g ai/ha,0
same,"Plant response rating, Flatsedge, Rice",[7]; 64 g ai/ha,70
same,"Plant response rating, Flatsedge, Rice",[7]; 125 g ai/ha,70
same,"Plant response rating, Flatsedge, Rice",[7]; 250 g ai/ha,70
same,"Plant response rating, Rice, Transplanted",[8]; 16 g ai/ha,0
same,"Plant response rating, Rice, Transplanted",[8]; 32 g ai/ha,0
same,"Plant response rating, Rice, Transplanted",[8]; 64 g ai/ha,0
same,"Plant response rating, Rice, Transplanted",[8]; 125 g ai/ha,50
same,"Plant response rating, Rice, Transplanted",[8]; 250 g ai/ha,65
same,"Plant response rating, Chickweed",[3]; 31 g ai/ha,0
Cc1cc(-c2ccc(Cl)cc2)nn1-c1c(OC(=O)c2cccc(Cl)c2)cnn(C)c1=O [Compound 32],"Plant response rating, Dayflower, V.","[1]; Postemergence, 8 g ai/ha",0
same,"Plant response rating, Dayflower, V.","[1]; Postemergence, 16 g ai/ha",0
same,"Plant response rating, Dayflower, V.","[1]; Postemergence, 31 g ai/ha",0
same,"Plant response rating, Dayflower, V.","[1]; Postemergence, 62 g ai/ha",0
same,"Plant response rating, Sowthistle","[2]; Postemergence, 8 g ai/ha",0
same,"Plant response rating, Sowthistle","[2]; Postemergence, 16 g ai/ha",0
same,"Plant response rating, Sowthistle","[2]; Postemergence, 31 g ai/ha",0
same,"Plant response rating, Sowthistle","[2]; Postemergence, 62 g ai/ha",0
same,"Plant response rating, Prickly Sida","[5]; Postemergence, 8 g ai/ha",0
same,"Plant response rating, Prickly Sida","[5]; Postemergence, 16 g ai/ha",0
same,"Plant response rating, Prickly Sida","[5]; Postemergence, 31 g ai/ha",0
same,"Plant response rating, Prickly Sida","[5]; Postemergence, 62 g ai/ha",0
Cc1cc(-c2ccc(Cl)cc2)nn1-c1c(OS(=O)(=O)c2ccccc2)cnn(C)c1=O [Compound 35],"Plant response rating, Chickweed",[3]; 8 g ai/ha,0
same,"Plant response rating, Chickweed",[3]; 16 g ai/ha,0
same,"Plant response rating, Chickweed",[3]; 31 g ai/ha,0
Cc1cc(-c2ccc(Cl)cc2)nn1-c1c(OC(=O)Oc2ccccc2)cnn(C)c1=O [Compound 54],"Plant response rating, Dayflower, V.","[1]; 8 g ai/ha, Postemergence",0
same,"Plant response rating, Dayflower, V.","[1]; Postemergence, 16 g ai/ha",0
same,"Plant response rating, Dayflower, V.","[1]; Postemergence, 31 g ai/ha",0
same,"Plant response rating, Dayflower, V.","[1]; Postemergence, 62 g ai/ha",0
same,"Plant response rating, Sowthistle","[2]; 8 g ai/ha, Postemergence",0
same,"Plant response rating, Sowthistle","[2]; Postemergence, 16 g ai/ha",0
same,"Plant response rating, Sowthistle","[2]; Postemergence, 31 g ai/ha",0
same,"Plant response rating, Sowthistle","[2]; Postemergence, 62 g ai/ha",0
same,"Plant response rating, Prickly Sida","[5]; 8 g ai/ha, Postemergence",0
same,"Plant response rating, Prickly Sida","[5]; Postemergence, 16 g ai/ha",0
same,"Plant response rating, Prickly Sida","[5]; Postemergence, 31 g ai/ha",0
same,"Plant response rating, Prickly Sida","[5]; Postemergence, 62 g ai/ha",0
CCCc1cc(-c2ccc(C(F)(F)F)cc2)nn1-c1c(O)cnn(C)c1=O [Compound 72],"Plant response rating, Blackgrass",[9]; [10],80
same,"Plant response rating, Blackgrass",[9]; [11],100
same,"Plant response rating, Blackgrass",[9]; [12],70
same,"Plant response rating, Blackgrass",[9]; [13],100
CCc1cc(-c2ccc(Br)cc2)nn1-c1c(O)cnn(CC(F)(F)F)c1=O [Compound 73],"Plant response rating, Blackgrass",[9]; [10],90
same,"Plant response rating, Blackgrass",[9]; [11],90
same,"Plant response rating, Blackgrass",[9]; [12],60
same,"Plant response rating, Blackgrass",[9]; [13],90
CCc1cc(-c2ccc(Br)cc2)nn1-c1c(O)c(C)nn(C)c1=O [Compound 74],"Plant response rating, Blackgrass",[9]; [10],100
same,"Plant response rating, Blackgrass",[9]; [11],100
same,"Plant response rating, Blackgrass",[9]; [12],100
same,"Plant response rating, Blackgrass",[9]; [13],100
CCCc1cc(-c2ccc(Cl)cc2)nn1-c1c(O)cnn(C)c1=O [Compound 76],"Plant response rating, Blackgrass",[9]; [10],90
same,"Plant response rating, Blackgrass",[9]; [11],100
same,"Plant response rating, Blackgrass",[9]; [13],90
"Cc1cc(-c2ccc(Br)cc2)nn1-c1c(O)cnn(C2CCCCO2)c1=O (stereo not shown) [Compound 77, 4-[3-(4-bromophenyl)-5-methyl-1H-pyrazol-1-yl]-5-hydroxy-2-(tetrahydro-2H-pyran-2-yl)-3(2H)-pyridazinone]","Plant response rating, Blackgrass",[9]; [11],100
same,"Plant response rating, Blackgrass","[9]; Postemergence, 500 g ai/ha, 0 to 100 scale, 0 no effect, 100 complete control",100
same,"Plant response rating, Blackgrass",[9]; [13],80
same,"Plant response rating, Blackgrass","[9]; Preemergence, 500 g ai/ha, 0 to 100 scale (0 no effect, 100 complete control)",100
"Cc1nn(C)c(=O)c(-c2nc(-c3ccc(Cl)cc3)sc2C)c1O [Compound 79, 4-[2-(4-chlorophenyl)-5-methyl-4-thiazolyl]-5-hydroxy-2,6-dimethyl-3(2H)-pyridazinone]","Plant response rating, Blackgrass",[9]; [10],60
same,"Plant response rating, Blackgrass",[9]; [11],100
same,"Plant response rating, Blackgrass",[9]; [12],80
same,"Plant response rating, Blackgrass",[9]; [13],100
COc1nn(C)c(=O)c(-n2nc(-c3ccc(Br)cc3)cc2C)c1O [Compound 82],"Plant response rating, Blackgrass",[9]; [10],100
same,"Plant response rating, Blackgrass",[9]; [11],100
same,"Plant response rating, Blackgrass",[9]; [12],70
same,"Plant response rating, Blackgrass",[9]; [13],100
CCc1c(C)c(-c2ccc(Br)cc2)nn1-c1c(O)cnn(C)c1=O [Compound 83],"Plant response rating, Blackgrass",[9]; [10],90
same,"Plant response rating, Blackgrass",[9]; [11],100
same,"Plant response rating, Blackgrass",[9]; [12],20
same,"Plant response rating, Blackgrass",[9]; [13],100
"Cc1cn(-c2ccc(C(F)(F)F)cc2)nc1-c1c(O)cnn(C)c1=O [Compound 85, 5-hydroxy-2-methyl-4-[4-methyl-1-[4-(trifluoromethyl)phenyl]-1H-pyrazol-3-yl]-3(2H)-pyridazinone]","Plant response rating, Blackgrass",[9]; [10],0
same,"Plant response rating, Blackgrass",[9]; [11],40
same,"Plant response rating, Blackgrass",[9]; [12],0
same,"Plant response rating, Blackgrass",[9]; [13],40
"Cn1ncc(O)c(-c2nn(-c3ccc(C(F)(F)F)cc3)cc2Br)c1=O [Compound 87, 4-[4-bromo-1-[4-(trifluoromethyl)phenyl]-1H-pyrazol-3-yl]-5-hydroxy-2-methyl-3(2H)-pyridazinone]","Plant response rating, Blackgrass",[9]; [10],30
same,"Plant response rating, Blackgrass",[9]; [11],80
same,"Plant response rating, Blackgrass",[9]; [12],30
same,"Plant response rating, Blackgrass",[9]; [13],90
